Results as given in patent publication US4698352A, “4-oxo-1,4-dihydronicotinic acid derivatives, salts thereof, and antibacterial agents containing the same” (Toyama Chemical Co., Ltd., priority 1982, dated 1987).
In brackets after ≈: the same amount, converted by molar mass. Where two headings read alike, the source gives them in different places.

Experiments:
Assay in all cases: Antibacterial activity (MIC), agar dilution
Format in all cases: cell-based
E. coli GN5482** = details: E. coli GN5482, cephalospolinase-producing, 10^6 cells per ml
Excerpt: (§1) The amount of bacteria inoculated was 10^4 cells per plate (10^6 cells per ml).
(§2) ** Cephalospolinase-producing bacteria

Pro. vulgaris GN76** = details: Pro. vulgaris GN76, cephalospolinase-producing, 10^6 cells per ml
Excerpt: as §1, §2

Ps. aeruginosa GN918** = details: Pseudomonas aeruginosa, Ps. aeruginosa GN918, cephalospolinase-producing, 10^6 cells per ml
Excerpt: as §1, §2

St. aureus FDA209P = details: St. aureus FDA209P, 10^6 cells per ml, 37° C., 20 hours
Excerpt: as §1

Ps. aeruginosa IFO3445 = test system: Ps. aeruginosa IFO3445
Excerpt: as §1

Kl. pneumoniae Y-50 = details: 10^6 cells per ml, 37° C.
Excerpt: as §1

Ent. cloacae IID977 = details: Ent. cloacae IID977, 10^6 cells per ml, 37° C., 20 hours
Excerpt: as §1

Pro. vulgaris GN3027 = details: Pro. vulgaris GN3027, 10^6 cells per ml, 37° C., 20 hours
Excerpt: as §1

Kl. pneumoniae Y-41 = details: 37° C., 20 hours
Excerpt: as §1

E. coli NIHJ JC-2 = details: E. coli NIHJ JC-2, 10^6 cells per ml, 37° C., 20 hours
Excerpt: as §1

Aci. antitratus A-6 = details: Aci. antitratus A-6, 10^6 cells per ml, 37° C., 20 hours
Excerpt: as §1

Pro. mirabilis T-111 = details: 37° C.
Excerpt: as §1

Pro. morganii T-216 = details: Morganella morganii, 37° C.
Excerpt: as §1

E. coli TK-111 = details: E. coli TK-111, 10^6 cells per ml, 37° C., 20 hours
Excerpt: as §1

Ps. aeruginosa S-68 = test system: Ps. aeruginosa S-68
Excerpt: as §1

Ps. aeruginosa GN3379* = details: Pseudomonas aeruginosa, Ps. aeruginosa GN3379, penicillinase-producing, 10^6 cells per ml
Excerpt: as §1
(§3) * Penicillinase-producing bacteria

E. coli TK-3* = details: E. coli TK-3, penicillinase-producing, 10^6 cells per ml
Excerpt: as §1, §3

St. aureus F-137* = details: St. aureus F-137, penicillinase-producing, 10^6 cells per ml
Excerpt: as §1, §3

Kl. pneumoniae Y-4* = details: Kl. pneumoniae Y-4, penicillinase-producing, 10^6 cells per ml
Excerpt: as §1, §3

[1] = Escherichia coli, 20 h, read-out: MIC
[2] = Proteus vulgaris, 20 h, read-out: MIC
[3] = Staphylococcus aureus, FDA209P, 20 h, read-out: MIC
[4] = Pseudomonas aeruginosa, Ps. aeruginosa IFO3445, 10^6 cells per ml, 37° C., 20 hours, read-out: MIC
[5] = Klebsiella pneumoniae, Y50, 20 h, read-out: MIC
[6] = Enterobacter cloacae, IID977, 20 h, read-out: MIC
[7] = Proteus vulgaris, GN3027, 20 h, read-out: MIC
[8] = Klebsiella pneumoniae, Y41, 10^6 cells per ml, read-out: MIC
[9] = Escherichia coli, NIHJJC2, 20 h, read-out: MIC
[10] = Proteus mirabilis, T111, 10^6 cells per ml, 20 hours, read-out: MIC
[11] = Escherichia coli, TK111, 20 h, read-out: MIC
[12] = Pseudomonas aeruginosa, S68, Ps. aeruginosa S-68, 10^6 cells per ml, 37° C., 20 hours, read-out: MIC
[13] = Staphylococcus aureus, 20 h, read-out: MIC
[14] = Klebsiella pneumoniae, 20 h, read-out: MIC
[15] = Proteus mirabilis, T111, 20 h, 10^6 cells per ml
[16] = Pseudomonas aeruginosa, S68, 20 h
[17] = T216, 10^6 cells per ml, 20 hours, read-out: MIC

SMILES	MIC (E. coli GN5482**; [1]) [mg/L]	MIC (Pro. vulgaris GN76**; [2]) [mg/L]	MIC (Ps. aeruginosa GN918**; GN918, 20 h) [mg/L]	MIC (St. aureus FDA209P; [3]) [mg/L]	MIC (Ps. aeruginosa IFO3445; [4]) [mg/L]	MIC (Kl. pneumoniae Y-50; [5]) [mg/L]	MIC (Ent. cloacae IID977; [6]) [mg/L]	MIC (Pro. vulgaris GN3027; [7]) [mg/L]	MIC (Kl. pneumoniae Y-41; [8]) [mg/L]	MIC (E. coli NIHJ JC-2; [9]) [mg/L]	MIC (Aci. antitratus A-6; 20 h, read-out: MIC) [mg/L]	MIC (Pro. mirabilis T-111; [10]) [mg/L]	MIC (E. coli TK-111; [11]) [mg/L]	MIC (Ps. aeruginosa S-68; [12]) [mg/L]	MIC (Ps. aeruginosa GN3379*; 20 h, read-out: MIC) [mg/L]	MIC (E. coli TK-3*; [1]) [mg/L]	MIC (St. aureus F-137*; [13]) [mg/L]	MIC (Kl. pneumoniae Y-4*; [14]) [mg/L]	MIC (Ps. aeruginosa GN3379*; GN3379, 20 h) [mg/L]	MIC (Pro. morganii T-216; [17]) [mg/L]	also measured
CC(=O)Oc1ccc(-n2cc(C(=O)O)c(=O)cc2-c2ccc(N(C)C)cc2)c(C)c1	≤ 0.05	0.39 (≈ 0.96 µM)	1.56 (≈ 3.84 µM)	≤ 0.05	6.25 (≈ 15.4 µM)	0.39 (≈ 0.96 µM)	0.78 (≈ 1.92 µM)	0.39 (≈ 0.96 µM)	1.56 (≈ 3.84 µM)	0.2 (≈ 0.492 µM)	≤ 0.05	0.78 (≈ 1.92 µM)	≤ 0.05	3.13 (≈ 7.7 µM)	6.25 (≈ 15.4 µM)	0.39 (≈ 0.96 µM)	≤ 0.05	1.56 (≈ 3.84 µM)	–	–	MIC (Pro. morganii T-216; T216, 20 h, 10^6 cells per ml): 1.56 mg/L (≈ 3.84 µM)
O=C(O)c1cn(-c2ccc(O)cc2)c(-c2ccc(N3CCCC3)cc2)cc1=O	≤ 0.05	0.78 (≈ 2.07 µM)	1.56 (≈ 4.14 µM)	0.2 (≈ 0.531 µM)	6.25 (≈ 16.6 µM)	0.78 (≈ 2.07 µM)	0.78 (≈ 2.07 µM)	0.2 (≈ 0.531 µM)	1.56 (≈ 4.14 µM)	0.39 (≈ 1.04 µM)	≤ 0.05	–	0.2 (≈ 0.531 µM)	–	–	0.78 (≈ 2.07 µM)	0.1 (≈ 0.266 µM)	3.13 (≈ 8.32 µM)	3.13 (≈ 8.32 µM)	–	MIC (Pro. mirabilis T-111; [15]): 1.56 mg/L (≈ 4.14 µM); MIC (Pro. morganii T-216; T216, 20 h, 10^6 cells per ml): 1.56 mg/L (≈ 4.14 µM); MIC (Ps. aeruginosa S-68; [16]): 3.13 mg/L (≈ 8.32 µM)
CC(=O)Oc1ccc(-n2cc(C(=O)OCCN(C)C)c(=O)cc2-c2ccc(N(C)C)cc2)cc1 [drawing 67]	–	–	–	–	–	–	–	–	–	–	–	–	–	–	–	–	–	–	6.25 (≈ 13.5 µM)	1.56 (≈ 3.37 µM)	MIC (E. coli GN5482**): ≤ 0.05 mg/L; MIC (Pro. vulgaris GN76**): 1.56 mg/L (≈ 3.37 µM); MIC (Ps. aeruginosa GN918**; 20 h, read-out: MIC): 1.56 mg/L (≈ 3.37 µM); MIC (St. aureus FDA209P): 0.2 mg/L (≈ 0.431 µM); MIC (Ps. aeruginosa IFO3445; Ps. aeruginosa IFO3445, 10^6 cells per ml, 37° C., 20 hours): 12.5 mg/L (≈ 27 µM); MIC (Kl. pneumoniae Y-50; 20 hours): 0.39 mg/L (≈ 0.841 µM); MIC (Ent. cloacae IID977): 0.78 mg/L (≈ 1.68 µM); MIC (Pro. vulgaris GN3027): 0.2 mg/L (≈ 0.431 µM); MIC (Kl. pneumoniae Y-41; 10^6 cells per ml): 3.13 mg/L (≈ 6.75 µM); MIC (E. coli NIHJ JC-2): 0.2 mg/L (≈ 0.431 µM); MIC (Aci. antitratus A-6): 0.2 mg/L (≈ 0.431 µM); MIC (Pro. mirabilis T-111; 10^6 cells per ml, 20 hours): 3.13 mg/L (≈ 6.75 µM); MIC (E. coli TK-111): 0.1 mg/L (≈ 0.216 µM); MIC (Ps. aeruginosa S-68; Ps. aeruginosa S-68, 10^6 cells per ml, 37° C., 20 hours): 6.25 mg/L (≈ 13.5 µM); MIC (E. coli TK-3*): 0.78 mg/L (≈ 1.68 µM); MIC (St. aureus F-137*): 0.2 mg/L (≈ 0.431 µM); MIC (Kl. pneumoniae Y-4*): 3.13 mg/L (≈ 6.75 µM)
O=C(O)c1cn(-c2ccc(O)cc2F)c(-c2ccc(N3CCCC3)cc2)cc1=O	≤ 0.05	0.78 (≈ 1.98 µM)	–	≤ 0.05	6.25 (≈ 15.8 µM)	0.39 (≈ 0.989 µM)	0.78 (≈ 1.98 µM)	0.2 (≈ 0.507 µM)	1.56 (≈ 3.96 µM)	0.2 (≈ 0.507 µM)	≤ 0.05	0.78 (≈ 1.98 µM)	≤ 0.05	–	–	–	≤ 0.05	3.13 (≈ 7.94 µM)	3.13 (≈ 7.94 µM)	0.78 (≈ 1.98 µM)	MIC (Ps. aeruginosa GN918**; 20 h, read-out: MIC): 0.78 mg/L (≈ 1.98 µM); MIC (Ps. aeruginosa S-68; [16]): 3.13 mg/L (≈ 7.94 µM)
O=C(O)c1cn(-c2ccc(O)cc2)c(-c2ccc3sccc3c2)cc1=O	≤ 0.05	0.2 (≈ 0.55 µM)	–	–	1.56 (≈ 4.29 µM)	0.2 (≈ 0.55 µM)	0.78 (≈ 2.15 µM)	≤ 0.05	0.78 (≈ 2.15 µM)	0.2 (≈ 0.55 µM)	0.1 (≈ 0.275 µM)	0.78 (≈ 2.15 µM)	≤ 0.05	3.13 (≈ 8.61 µM)	1.56 (≈ 4.29 µM)	0.39 (≈ 1.07 µM)	0.39 (≈ 1.07 µM)	0.78 (≈ 2.15 µM)	–	0.39 (≈ 1.07 µM)	MIC (Ps. aeruginosa GN918**; 20 h, read-out: MIC): 0.39 mg/L (≈ 1.07 µM)
O=C(O)c1cn(-c2ccc(O)cc2)c(-c2ccc(-c3ccc(O)cc3)s2)cc1=O	≤ 0.05	0.78 (≈ 1.92 µM)	–	0.1 (≈ 0.247 µM)	–	0.78 (≈ 1.92 µM)	1.56 (≈ 3.85 µM)	0.39 (≈ 0.962 µM)	3.13 (≈ 7.72 µM)	0.39 (≈ 0.962 µM)	0.78 (≈ 1.92 µM)	–	≤ 0.05	–	–	0.78 (≈ 1.92 µM)	0.2 (≈ 0.493 µM)	6.25 (≈ 15.4 µM)	3.13 (≈ 7.72 µM)	1.56 (≈ 3.85 µM)	MIC (Ps. aeruginosa IFO3445; Pseudomonas aeruginosa, IFO3445, 20 h): 3.13 mg/L (≈ 7.72 µM); MIC (Pro. mirabilis T-111; [15]): 6.25 mg/L (≈ 15.4 µM); MIC (Ps. aeruginosa S-68; [16]): 6.25 mg/L (≈ 15.4 µM)
CN(C)c1ccc(-c2cc(=O)c(C(=O)O)cn2-c2ccc(O)cc2F)cc1	≤ 0.05	0.2 (≈ 0.543 µM)	–	≤ 0.05	1.56 (≈ 4.23 µM)	0.2 (≈ 0.543 µM)	0.2 (≈ 0.543 µM)	≤ 0.05	3.13 (≈ 8.5 µM)	0.1 (≈ 0.271 µM)	0.1 (≈ 0.271 µM)	0.78 (≈ 2.12 µM)	≤ 0.05	0.78 (≈ 2.12 µM)	–	0.2 (≈ 0.543 µM)	≤ 0.05	0.78 (≈ 2.12 µM)	3.13 (≈ 8.5 µM)	0.78 (≈ 2.12 µM)	–
O=C(O)c1cn(-c2ccc(O)cc2)c(-c2ccc3occc3c2)cc1=O	≤ 0.05	0.78 (≈ 2.25 µM)	1.56 (≈ 4.49 µM)	0.2 (≈ 0.576 µM)	12.5 (≈ 36 µM)	0.39 (≈ 1.12 µM)	0.78 (≈ 2.25 µM)	≤ 0.05	1.56 (≈ 4.49 µM)	0.39 (≈ 1.12 µM)	0.78 (≈ 2.25 µM)	–	0.2 (≈ 0.576 µM)	6.25 (≈ 18 µM)	6.25 (≈ 18 µM)	–	0.39 (≈ 1.12 µM)	3.13 (≈ 9.01 µM)	–	0.78 (≈ 2.25 µM)	MIC (Pro. mirabilis T-111; [15]): 3.13 mg/L (≈ 9.01 µM)
